In EPA's ToxValDB 9.5 (doi:10.2903/j.efsa.2016.4504):

What was measured:
Aphidius rhopalosiphi = test: LR50; higher = less toxic; conditions: not reported; mortality
Canidae = conditions: chronic; oral; Dog Other; gross pathology
Neomysis kadiakensis = conditions: chronic/long-term; duration: 32 days; reproduction
Colinus virginianus = conditions: oral; for LEC: diet
Apis mellifera = conditions: acute, mortality
Folsomia candida = conditions: chronic/long-term
[1] = short-term, duration: 28 days, oral, diet, no effects

Compound | LR50 (Aphidius rhopalosiphi) [g/ha] | NOAEL (Canidae) [mg/kg-day] | NOEC (Neomysis kadiakensis) [mg/L] | LC50 (Cyprinodon variegatus; acute, duration: 96 hours, mortality) [µg/mL] | NOEC (Cyprinodon variegatus; chronic/long-term, duration: 35 days, growth) [mg/L] | LD50 (Rattus norvegicus; acute, oral, mortality) [mg/kg] | NOAEL (Rattus norvegicus; reproduction developmental, other) [mg/kg-day] | LEL (Colinus virginianus; acute) [mg/kg-day] | LEC (Colinus virginianus; chronic) [mg/kg-day] | LEC (Colinus virginianus; short-term) [mg/kg-day] | LD50 (Apis mellifera; dermal) [µg/piece] | LD50 (Apis mellifera; oral, unspecified) [µg/piece] | NOEC (Folsomia candida) [mg/kg] | LC50 (Tagia sp.; acute) [mg/kg] | NOEC (Tagia sp.; chronic/long-term) [mg/kg] | NOAEL (Rattus norvegicus; [1]) [mg/kg-day]
Cc1cc(C(F)(F)F)nn1CC(=O)N1CCC(c2nc(C3=NOC(c4c(F)cccc4F)C3)cs2)CC1 (configuration not stated) [Oxathiapiprolin] | 116 | 13.6 | 0.058 | > 0.65 | 0.34 | > 5000 | 86.4 | > 4250 | 107 | > 1280 | > 100 | > 40.3 | 12.5 | > 500 | 15.4 | 
O=C(O)c1cc(C(F)(F)F)nn1[C@@H]1O[C@H](CO)[C@@H](O)[C@H](O)[C@H]1O |  |  |  |  |  |  |  |  |  |  |  |  |  |  |  | 1160
O=C(O)c1cc(C(F)(F)F)[nH]n1 [5-(Trifluoromethyl)-1H-pyrazole-3-carboxylic acid] |  |  |  |  |  |  |  |  |  |  |  |  |  |  |  | 1160
